The target of assay [1] is M6PR (Homo sapiens, UniProt P11717). The assay is described as follows: SPR binding to M6P receptor. An excerpt:
SPR was used to obtain the binding data for M6P receptor ligands compounds (int-CC6), either alone or as part of the bifunctional compound (BFC-2).
Background: Surface plasmon resonance follows binding to a sensor surface in real time, without labels.

Assay [2] concerns the target T1, human ASGPR1 (Homo sapiens, UniProt P07306).
T1 construct: Recombinant extracellular domain of human ASGPR1 with N-terminal biotinylated Avitag
T1 sequence (P07306 62-291 limits assumed): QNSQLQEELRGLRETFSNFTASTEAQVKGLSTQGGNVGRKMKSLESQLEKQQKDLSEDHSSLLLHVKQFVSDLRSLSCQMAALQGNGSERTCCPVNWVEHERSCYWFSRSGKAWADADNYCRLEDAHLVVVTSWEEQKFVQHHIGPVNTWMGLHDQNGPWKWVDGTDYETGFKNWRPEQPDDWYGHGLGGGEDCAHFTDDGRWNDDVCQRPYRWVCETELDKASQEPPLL
As to the kind of experiment: ASGPR1 SPR direct binding (Biacore, SA chip). The method, then:
SPR was used to obtain the binding data for ASGP receptor ligand compound (int-CC2), either alone or as part of the bifunctional compounds (BFC-13), (BFC-15) and (BFC16).
(§1) ASGPR1 SPR experiments were performed on either Biacore T200 or Biacore 8K. The assay was optimized for Biacore (Streptavidin) SA chip in running buffer consisting of 20 mM HEPES, 300 mM NaCl, 2 mM CaCl2, 0.01% tween-20, 2% DMSO, pH 7.4. Recombinant extracellular domain of human ASGPR1 with N-terminal biotinylated Avitag was diluted to 20 μg/mL in running buffer, and immobilized onto SA chip after it was preconditioned with at least four 60-second injections at 30 uL/min of 1 M NaCl/40 mM NaOH solution. Protein immobilization level varied from 500 RU to 3500 RU dependent on analytes' molecular weight, for targeted Rmax of 30 RUs. Direct binding of analytes to ASGPR1 was observed when a dose response titration of analytes in 2% DMSO was flown over the immobilized protein. Data analysis was done on either Biacore T200 Evaluation Software or Biacore Insight Evaluation Software.
SPR was used to obtain the binding data for ASGP receptor ligand compounds (int-CC2), either alone or as part of the bifunctional compounds (BFC1).
as §1, with “Biacore” for “Biacore (Streptavidin)”

The target in assay [3] is T2, human PCSK9 (Homo sapiens, UniProt Q8NBP7).
T2 construct: Purified recombinant full length human PCSK9 with C-terminal biotinylated Avitag
As to the kind of experiment: SPR binding to biotinylated human PCSK9 (Proteon XPR36). Particulars: Bifunctional Compound; SPR; read-out: PCSK9 KD. On the procedure:
SPR was used to obtain the binding data for PCSK9 receptor ligand compound (C5), either alone or as part of the bifunctional compounds (BFC1), respectively.
SPR Binding experiments were performed on a Proteon XPR36 instrument (Bio-Rad Laboratories). Purified recombinant full length human PCSK9 with C-terminal biotinylated Avitag was used for the assay. Biotinylated human PCSK9 was incubated with fivefold molar excess of bifunctional compound (BFC1) or compound (C5), and immobilized onto a Neutravidin coated sensor chip. (NLC chip, Bio-Rad Laboratories, Inc). After conditioning the chip by injecting running buffer (20 mM Tris pH7.5, 300 mM NaCl, 25 mM CaCl2, 2 mM betamercaptoethanol, 2% DMSO and 0.05% Tween-20) at a flow rate of 0.1 mL/min for 240 s, PCSK9 protein was injected at a protein concentration of 0.02 mg/ml in running buffer with fivefold molar excess of bifunctional compound and a flow rate of 0.03 mL/min followed by 4 washes with running buffer with 1 μM of bifunctional compound (0.1 mL/min for 60 seconds each).
To perform sandwich SPR binding assays, His-ASGPR1 (62-291) protein stocks were diluted with running buffer to a desired concentration. ASGPR was injected at a flow rate of 0.1 mL/min for 240 s and allowed to dissociate for 1200 s. Sensorgrams were recorded for association and dissociation phases. All sensorgrams were processed by subtracting the binding response recorded from a blank control surfaces (or interspot surfaces), followed by subtracting buffer blank injections from the reaction surface. Data were processed with the ProteOn Manager software (version 3.1.0.6, Bio-Rad, Inc.).

For assay [4], the target named is T3, FHR3 (Homo sapiens, UniProt Q02985).
T3 construct: Purified FHR3 with C-terminal biotinylated Avitag was used for the assay
T3 sequence (Q02985 19-330): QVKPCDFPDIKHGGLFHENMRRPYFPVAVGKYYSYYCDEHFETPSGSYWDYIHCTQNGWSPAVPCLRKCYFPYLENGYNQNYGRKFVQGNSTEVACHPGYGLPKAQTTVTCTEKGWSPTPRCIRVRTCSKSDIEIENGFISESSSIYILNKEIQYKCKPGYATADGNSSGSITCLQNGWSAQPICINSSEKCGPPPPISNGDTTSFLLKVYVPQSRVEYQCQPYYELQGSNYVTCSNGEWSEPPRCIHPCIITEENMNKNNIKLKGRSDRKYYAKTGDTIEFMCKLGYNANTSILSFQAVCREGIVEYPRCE
As to the kind of experiment: SPR binding to biotinylated FHR3 (Proteon XPR36). To be noted: Bifunctional Compound. On the procedure: SPR was used to obtain the binding data for FHR3 receptor ligands compounds (C12), (C13), (C14), (C15) and (C16), either alone or as part of the bifunctional compounds (BFC13), (BFC14), (BFC15), (BFC16) and (BFC17), respectively.
SPR Binding experiments were performed on a Proteon XPR36 instrument (Bio-Rad Laboratories). Purified FHR3 with C-terminal biotinylated Avitag was used for the assay. Biotinylated FHR3 was incubated with fivefold molar excess of bifunctional compounds (BFC13), (BFC14), (BFC15), (BFC16) or (BFC17), or compounds (C12), (C13), (C14), (C15) or (C16), and immobilized onto a Neutravidin coated sensor chip. (NLC chip, Bio-Rad Laboratories, Inc). […]
To perform sandwich SPR binding assays, His-ASGPR1 (62-291) protein stocks were diluted with running buffer to a desired concentration. […] Sensorgrams were recorded for association and dissociation phases. All sensorgrams were processed by subtracting the binding response recorded from a blank control surfaces (or interspot surfaces), followed by subtracting buffer blank injections from the reaction surface. […]

Setting [5] is: Bifunctional Compound (PCSK9 series), Table 9, read-out: ASGPR binding KD.

Broadly, the Kd is the free concentration of one partner at which half of the binding sites on the other are occupied at equilibrium, for simple one-to-one binding.

Read-outs that look alike come from different tables or passages of the source. Positions of bridges follow the written chain, without caps; N, C: chain ends. Non-standard residues stand in square brackets, D forms with d. Residues, ends and D or L forms follow the SMILES beside them. *: point of attachment. X6 = O=C(CCCO[C@@H]1OC(CO[C@H]2OC(CO[C@H]3OC(CO)[C@@H](O)C(O)C3C[C@H]3OC(COP(=O)(O)O)[C@@H](O)C(O)C3O)[C@@H](O)C(O)C2O)[C@@H](O)C(O[C@H]2OC(CO)[C@@H](O)C(O)C2O[C@H]2OC(COP(=O)(O)O)[C@@H](O)C(O)C2O)C1O)NNC(=O)CO/N=C/c1ccc(C(=O)*)cc1; X7 = O=C(OC[C@@H]1[C@@H]2CCc3c(nnn3CCCCCCO[C@H](O[C@@H](/C=N/OCCO[C@H]3O[C@H](CCP(=O)(O)O)[C@@H](O)[C@H](O)[C@@H]3O)CO)[C@H](O)/C=N\OCCO[C@H]3O[C@H](CCP(=O)(O)O)[C@@H](O)[C@H](O)[C@@H]3O)CC[C@@H]21)*; X1 = CC(=O)N[C@H]1[C@H]2OC[C@](COCCOCCOCCOCCn3cc(COCCNC(=O)CCOCCOCCOCCOCCC(=O)*)nn3)(O2)[C@H](O)[C@@H]1O; Bip = N[C@@H](Cc1ccc(-c2ccccc2)cc1)C(=O)O; NMeA = CN[C@@H](C)C(=O)O

M6PR, sequence (P11717 whole entry): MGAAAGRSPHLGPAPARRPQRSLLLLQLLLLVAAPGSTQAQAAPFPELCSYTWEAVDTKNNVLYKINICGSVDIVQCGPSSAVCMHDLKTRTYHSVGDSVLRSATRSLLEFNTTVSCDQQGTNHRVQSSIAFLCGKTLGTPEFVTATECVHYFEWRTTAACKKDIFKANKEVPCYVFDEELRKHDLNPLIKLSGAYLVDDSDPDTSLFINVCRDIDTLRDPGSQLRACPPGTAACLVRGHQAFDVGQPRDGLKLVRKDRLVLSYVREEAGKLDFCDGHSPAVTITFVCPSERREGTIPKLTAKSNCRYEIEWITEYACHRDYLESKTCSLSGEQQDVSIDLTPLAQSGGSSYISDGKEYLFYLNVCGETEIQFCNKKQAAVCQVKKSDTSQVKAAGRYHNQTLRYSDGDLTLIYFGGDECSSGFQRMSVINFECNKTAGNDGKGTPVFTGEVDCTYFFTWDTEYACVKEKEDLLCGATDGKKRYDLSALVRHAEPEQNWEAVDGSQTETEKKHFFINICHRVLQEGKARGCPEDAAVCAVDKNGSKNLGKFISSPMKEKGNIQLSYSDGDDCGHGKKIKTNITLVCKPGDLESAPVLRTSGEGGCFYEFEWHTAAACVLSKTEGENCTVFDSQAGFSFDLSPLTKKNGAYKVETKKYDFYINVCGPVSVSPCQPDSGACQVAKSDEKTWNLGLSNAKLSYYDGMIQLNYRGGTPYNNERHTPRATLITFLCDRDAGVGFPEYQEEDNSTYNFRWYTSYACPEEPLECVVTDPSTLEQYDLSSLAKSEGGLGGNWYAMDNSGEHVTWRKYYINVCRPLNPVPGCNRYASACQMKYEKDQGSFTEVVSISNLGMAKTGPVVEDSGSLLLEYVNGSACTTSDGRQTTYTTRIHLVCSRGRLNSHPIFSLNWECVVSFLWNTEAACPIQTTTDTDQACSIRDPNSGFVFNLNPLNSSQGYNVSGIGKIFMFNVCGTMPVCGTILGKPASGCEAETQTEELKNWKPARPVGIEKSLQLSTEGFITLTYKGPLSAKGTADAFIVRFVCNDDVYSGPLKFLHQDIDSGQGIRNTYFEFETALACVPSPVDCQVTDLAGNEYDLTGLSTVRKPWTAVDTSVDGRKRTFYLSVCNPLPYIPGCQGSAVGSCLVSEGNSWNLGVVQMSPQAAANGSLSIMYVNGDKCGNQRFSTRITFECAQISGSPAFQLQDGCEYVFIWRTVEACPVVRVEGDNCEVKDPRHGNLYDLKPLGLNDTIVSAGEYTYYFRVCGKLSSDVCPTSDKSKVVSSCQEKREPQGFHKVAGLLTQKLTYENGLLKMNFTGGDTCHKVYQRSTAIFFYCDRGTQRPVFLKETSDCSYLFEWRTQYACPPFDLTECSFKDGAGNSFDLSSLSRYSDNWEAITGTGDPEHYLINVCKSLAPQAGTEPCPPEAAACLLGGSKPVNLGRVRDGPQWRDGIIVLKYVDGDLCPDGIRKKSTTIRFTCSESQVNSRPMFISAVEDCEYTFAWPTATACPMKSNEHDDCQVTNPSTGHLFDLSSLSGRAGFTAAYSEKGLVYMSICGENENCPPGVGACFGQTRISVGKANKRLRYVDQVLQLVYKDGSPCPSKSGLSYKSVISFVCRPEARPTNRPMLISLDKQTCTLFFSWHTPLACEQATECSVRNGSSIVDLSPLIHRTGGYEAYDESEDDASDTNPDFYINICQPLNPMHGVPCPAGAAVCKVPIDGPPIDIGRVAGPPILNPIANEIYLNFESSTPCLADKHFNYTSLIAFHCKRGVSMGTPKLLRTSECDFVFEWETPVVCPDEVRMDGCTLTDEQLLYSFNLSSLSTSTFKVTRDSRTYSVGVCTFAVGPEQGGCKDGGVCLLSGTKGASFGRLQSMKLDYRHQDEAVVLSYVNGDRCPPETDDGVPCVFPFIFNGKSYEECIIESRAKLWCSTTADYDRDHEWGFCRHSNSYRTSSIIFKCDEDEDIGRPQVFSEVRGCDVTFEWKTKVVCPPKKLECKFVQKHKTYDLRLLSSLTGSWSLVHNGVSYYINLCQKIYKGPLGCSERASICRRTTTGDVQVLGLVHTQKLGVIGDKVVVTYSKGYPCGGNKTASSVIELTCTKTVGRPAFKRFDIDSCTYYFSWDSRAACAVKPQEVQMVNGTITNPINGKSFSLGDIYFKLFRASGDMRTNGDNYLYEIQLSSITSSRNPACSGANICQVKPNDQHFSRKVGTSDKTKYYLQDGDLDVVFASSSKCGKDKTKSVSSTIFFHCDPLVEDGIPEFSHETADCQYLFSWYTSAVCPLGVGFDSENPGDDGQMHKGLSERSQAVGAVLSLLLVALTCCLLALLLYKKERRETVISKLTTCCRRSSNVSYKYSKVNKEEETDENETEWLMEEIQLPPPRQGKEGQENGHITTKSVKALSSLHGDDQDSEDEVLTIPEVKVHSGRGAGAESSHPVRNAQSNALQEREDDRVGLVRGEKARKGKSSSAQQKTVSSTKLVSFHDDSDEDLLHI
T2 sequence (Q8NBP7 153-692): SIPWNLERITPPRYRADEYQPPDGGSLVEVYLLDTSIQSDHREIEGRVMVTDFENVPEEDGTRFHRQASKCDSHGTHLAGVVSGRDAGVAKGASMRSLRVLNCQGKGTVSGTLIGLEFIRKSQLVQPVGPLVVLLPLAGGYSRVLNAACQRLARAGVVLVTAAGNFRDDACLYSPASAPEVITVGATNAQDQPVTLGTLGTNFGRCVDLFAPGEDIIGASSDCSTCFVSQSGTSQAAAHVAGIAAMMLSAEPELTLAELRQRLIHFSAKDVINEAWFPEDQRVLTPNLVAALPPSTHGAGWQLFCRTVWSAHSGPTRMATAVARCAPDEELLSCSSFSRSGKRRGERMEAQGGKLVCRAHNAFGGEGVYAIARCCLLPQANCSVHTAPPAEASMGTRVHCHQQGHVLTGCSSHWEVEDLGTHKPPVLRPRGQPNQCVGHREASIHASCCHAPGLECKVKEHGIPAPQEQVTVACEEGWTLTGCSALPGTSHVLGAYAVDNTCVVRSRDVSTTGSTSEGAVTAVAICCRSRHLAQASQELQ

Turning to `NOCC(=O)NNC(=O)CCCO[C@@H]1OC(CO[C@H]2OC(CO[C@H]3OC(CO)[C@@H](O)[C@H](O)C3O[C@H]3OC(COP(=O)(O)O)[C@@H](O)C(O)[C@H]3O)[C@@H](O)[C@H](O)C2O)[C@@H](O)[C@H](O[C@H]2OC(CO)[C@@H](O)C(O)[C@H]2O[C@H]2OC(COP(=O)(O)O)[C@@H](O)C(O)[C@H]2O)C1O` (stereo partly drawn) [int-CC6], the equilibrium dissociation constant (Kd) in assay [1] (Free Ligand, SPR, read-out: M6PR binding KD) came out at 0.327 nM.

For `CC(=O)N[C@H]1[C@H]2OC[C@](COCCOCCOCCOCCn3cc(COCCNC(=O)CCOCCOCCOCCOCCC(=O)NCCCC[C@H](NC(=O)CNC(=O)[C@@H]4CSCC(=O)N[C@@H](Cc5ccccc5)C(=O)N[C@@H](C(C)C)C(=O)N5CCC[C@H]5C(=O)N[C@@H]([C@@H](C)O)C(=O)N[C@@H]([C@@H](C)O)C(=O)N[C@@H](Cc5ccc(-c6ccccc6)cc5)C(=O)N(C)[C@@H](C)C(=O)N[C@@H](Cc5ccc(-c6ccccc6)cc5)C(=O)N(C)[C@@H](C)C(=O)N[C@@H](CCC(=O)O)C(=O)N[C@@H](C)C(=O)N5CCC[C@H]5C(=O)N4)C(N)=O)nn3)(O2)[C@H](O)[C@@H]1O` [BFC-5] ({CH2CO}-FVPTT[Bip][NMeA][Bip][NMeA]EAPCGK(X1)-NH2; thioether N-13), the dissociation constant Kd in assay [2] (setting [5]) is 90 nM; in assay [3], 4.6 nM.

Turning to `CC(C)[C@@H]1NC(=O)[C@H](Cc2ccccc2)NC(=O)CSC[C@@H](C(=O)NCC(=O)N[C@@H](CCCCNC(=O)OC[C@@H]2[C@@H]3CCc4c(nnn4CCCCCCO[C@H](O[C@@H](/C=N/OCCO[C@H]4O[C@H](CCP(=O)(O)O)[C@@H](O)[C@H](O)[C@@H]4O)CO)[C@H](O)/C=N\OCCO[C@H]4O[C@H](CCP(=O)(O)O)[C@@H](O)[C@H](O)[C@@H]4O)CC[C@@H]32)C(N)=O)NC(=O)[C@@H]2CCCN2C(=O)[C@H](C)NC(=O)[C@H](CCC(=O)O)NC(=O)[C@H](C)N(C)C(=O)[C@H](Cc2ccc(-c3ccccc3)cc2)NC(=O)[C@H](C)N(C)C(=O)[C@H](Cc2ccc(-c3ccccc3)cc2)NC(=O)[C@H]([C@@H](C)O)NC(=O)[C@H]([C@@H](C)O)NC(=O)[C@@H]2CCCN2C1=O` [BFC-4] ({CH2CO}-FVPTT[Bip][NMeA][Bip][NMeA]EAPCGK(X7)-NH2; thioether N-13), the Kd in assay [1] was 110 nM.

Regarding `CC(=O)N[C@H]1[C@H](OCCCCC(=O)NCCCNC(=O)CCOCC(COCCC(=O)NCCCNC(=O)CCCCO[C@@H]2O[C@H](CO)[C@H](O)[C@H](O)[C@H]2NC(C)=O)(COCCC(=O)NCCCNC(=O)CCCCO[C@@H]2O[C@H](CO)[C@H](O)[C@H](O)[C@H]2NC(C)=O)NC(=O)CCOCCOCCOCCOCCOCCOCCOCCOCCOCCC(=O)NCCCC[C@@H]2NC(=O)[C@H](CCCNC(=N)N)NC(=O)[C@H](C)N(C)C(=O)[C@H](Cc3c[nH]c4ccccc34)NC(=O)[C@H](Cc3c[nH]cn3)NC(=O)[C@H](CC(C)C)NC(=O)[C@H](CO)NC(=O)[C@H](C)N(C)C(=O)[C@H](Cc3ccccc3)N(C)C(=O)[C@H](Cc3ccccc3)NC(=O)CSC[C@@H](C(=O)NCC(N)=O)NC(=O)[C@H](CCCNC(=N)N)NC(=O)[C@H](CC(=O)O)NC2=O)O[C@H](CO)[C@H](O)[C@@H]1O` [BFC-16], the Kd came out at 0.32 nM in assay [2] (Bifunctional Compound (FHR3 series), Table 7, read-out: ASGRR KD) and 26 nM in assay [4].

Regarding `COC[C@H]1NC(=O)[C@@H](CCCNC(=O)CCCCCCC(=O)NC(COCCC(=O)NCCCNC(=O)CCCCO[C@H]2O[C@@H](CO)[C@@H](O)[C@@H](O)[C@@H]2NC(C)=O)(COCCC(=O)NCCCNC(=O)CCCCO[C@H]2O[C@@H](CO)[C@@H](O)[C@@H](O)[C@@H]2NC(C)=O)COCCC(=O)NCCCNC(=O)CCCCO[C@H]2O[C@@H](CO)[C@@H](O)[C@@H](O)[C@@H]2NC(C)=O)N(Cc2ccc(Cl)cc2Oc2ccc(-c3cnc(CN(C)C)n3C)cc2)C(=O)C[C@H](Cc2ccccc2)C(=O)N(C)[C@@H]2CCCC[C@H]2NC(=O)C[C@@H](Cc2ccc(Cl)cc2)N(C)C1=O` [BFC-10], the Kd in assay [2] (setting [5]) came to 100 nM; in assay [3], 2.3 nM.

As for `CC(C)[C@@H]1NC(=O)[C@H](Cc2ccccc2)NC(=O)CSC[C@@H](C(=O)NCC(=O)N[C@@H](CCCCNC(=O)c2ccc(/C=N/OCC(=O)NNC(=O)CCCO[C@@H]3OC(CO[C@H]4OC(CO[C@H]5OC(CO)[C@@H](O)C(O)C5C[C@H]5OC(COP(=O)(O)O)[C@@H](O)C(O)C5O)[C@@H](O)C(O)C4O)[C@@H](O)C(O[C@H]4OC(CO)[C@@H](O)C(O)C4O[C@H]4OC(COP(=O)(O)O)[C@@H](O)C(O)C4O)C3O)cc2)C(N)=O)NC(=O)[C@@H]2CCCN2C(=O)[C@H](C)NC(=O)[C@H](CCC(=O)O)NC(=O)[C@H](C)N(C)C(=O)[C@H](Cc2ccc(-c3ccccc3)cc2)NC(=O)[C@H](C)N(C)C(=O)[C@H](Cc2ccc(-c3ccccc3)cc2)NC(=O)[C@H]([C@@H](C)O)NC(=O)[C@H]([C@@H](C)O)NC(=O)[C@@H]2CCCN2C1=O` (stereo partly drawn) [BFC-2] ({CH2CO}-FVPTT[Bip][NMeA][Bip][NMeA]EAPCGK(X6)-NH2; thioether N-13), binding in assay [1] was characterised by a dissociation constant (Kd) of 7.19 nM.

Source of the values: patent US12605451B2, “Targeted plasma protein degradation” (Novartis AG, priority 2020, dated 2026).
